Drawing on ChEMBL document CHEMBL1130353, “Conformational studies of paclitaxel analogs modified at the C-2' position in hydrophobic and hydrophilic solvent systems” (J Med Chem, 1997), this text covers IC50 for 3 molecules.

pIC50: −log10 of the molar value.

What all share (format): functional, cell-based
One assay deals with EMT6. The assay is described as follows: Inhibitory activity of compound against murine mammary adenocarcinoma (EMT-6) cell proliferation. To be noted: Mus musculus.
The test system of a further assay is OV-1063. The assay is described as follows: Inhibitory activity of compound against human ovarian carcinoma (OV-1063) Cell proliferation.
A further assay relates to J774. Put plainly: Inhibitory activity of compound against murine macrophage-like (J774.2) cell proliferation. To be noted: Mus musculus.

With `CO[C@@H](C(=O)O[C@H]1C[C@@]2(O)[C@@H](OC(=O)c3ccccc3)C3[C@]4(OC(C)=O)COC4C[C@H](O)[C@@]3(C)C(=O)[C@H](OC(C)=O)C(=C1C)C2(C)C)[C@@H](NC(=O)c1ccccc1)c1ccccc1` (some centres undefined), the values for the pIC50 in the assay on EMT6, in the assay on OV-1063 and with J774 were 6.57, 6.57 and 6.33, respectively.
Regarding `CC(=O)O[C@H]1C(=O)[C@@]2(C)C([C@H](OC(=O)c3ccccc3)[C@]3(O)C[C@H](OC(=O)C[C@@H](NC(=O)c4ccccc4)c4ccccc4)C(C)=C1C3(C)C)[C@]1(OC(C)=O)COC1C[C@@H]2O` (some centres undefined), the pIC50 was 6.52 with EMT6, 6.35 in the assay with OV-1063 and 6.40 with J774.
For `CC(=O)O[C@H]1C(=O)[C@@]2(C)[C@H]([C@H](OC(=O)c3ccccc3)[C@]3(O)C[C@H](OC(=O)[C@H](O)[C@@H](NC(=O)c4ccccc4)c4ccccc4)C(C)=C1C3(C)C)[C@]1(OC(C)=O)CO[C@@H]1C[C@@H]2O` [PACLITAXEL], the pIC50 with EMT6 was 8.05; in the assay with OV-1063, 7.82; with J774, 7.82.
